Data: patent publication US20260345621A1, “GABAA RECEPTOR MODULATORS AND USES THEREOF” (Engrail Therapeutics, Inc., priority 2022, published 2026)
“Also recorded” adds a separate entry of the source. Read-outs that look alike come from different tables or passages of the source.

Assays:
[1] = Multiple ascending dose study, plasma pharmacokinetics; format: in vivo, human (healthy volunteers); conditions: for AUC(0-t) at 24 h / Cmax at 24 h / AUC tau / Cmax at 288 h / half-life: human, plasma, po
Procedure: A clinical study was developed to evaluate safety, tolerability, pharmacokinetics, and pharmacodynamics of Compound 1 at plasma steady-state in 40 healthy human volunteers. Compound 1 (provided as Compound 1 phosphate) was administered to participants as multiple ascending doses of 0.5 mg (N=6), 1.0 mg (N=6), 1.5 mg (N=6), 2.0 mg (N=6), or 5.0 mg (N=6) once daily (QD) for 12 days.
Blood samples were collected, and plasma concentrations were measured using a validated high performance liquid chromatography/liquid chromatography-mass spectrometry/mass spectrometry method. The PK parameters assessed included Cmax, Tmax, AUC from administration to the end of dosing (AUC0-t), AUC0-24, AUC0-inf, t1/2, terminal rate constant (λz), apparent total clearance of the drug from plasma (CL/F), and apparent volume of distribution during terminal phase after non-intravenous administration (Vz/F).
The plasma concentration data for Compound 1 were summarized by dose level and the planned sampling time points using descriptive statistics (n, SD, median, minimum, maximum, geometric mean, and coefficient of variance (CV %) for the geometric mean) for the PK Analysis Set.
Specifically, samples for PK analyses were taken on Day 1 and Day 12 pre-dose, 0.5, 1, 1.5, 3, 6, 8, 10, and 12 h post-dose, with additional samples taken on every dosing Day (24 hours after the previous day's dose) and 24, 72, 168, and 336 h after last dosing on Day 12. All individual Compound 1 concentrations were above the LLOQ of 0.0500 ng/mL at 0.5 h post-dose, except for 1 participant, for whom the concentration was above the LLOQ at 1 h post-dose.

[2] = participants receiving Compound 1
[3] = 0.5 mg oral QD, Day 1, 1440 min
[4] = 1.0 mg oral QD, Day 1, 1440 min
[5] = 1.5 mg oral QD, Day 1, 1440 min
[6] = 2.0 mg oral QD, Day 1, 1440 min

## CC(C)(O)c1cnn2c(-c3ccc(F)c(-c4c(F)cccc4C#N)c3)cnc2n1 [Compound 1, 2′,6-difluoro-5′-(3-(2-hydroxypropan-2-yl)imidazo[1,2-b][1,2,4]triazin-7-yl)-[1,1′-biphenyl]-2-carbonitrile]
2.0 mg and 5.0 mg
  moderate somnolence: Two TEAEs of moderate somnolence
5.0 mg
  moderate balance disorder: 1 TEAE of moderate balance disorder
0.5-5.0 mg oral QD 12 days
  concomitant medications or physical examination findings: No consistent differences
  mean QTcF increase: No clinically relevant increase
  severe TEAEs or SAEs: No severe TEAEs or serious adverse events (SAEs) occurred
  suicidal ideation or behaviors (C-SSRS): No positive responses
5/40 participants
  participants with TEAEs of moderate severity: 12.5%
34/40 participants
  participants with TEAEs of mild severity: 85.0%
In 5/40 participants
  number of TEAEs of moderate severity: 6
[2]
  dizziness: 20.0%
  postural dizziness: 30.0%
Pooled placebo
  incidence of somnolence versus placebo: approximately twice as high as the placebo-treated participants
[1]; [3]
  AUC0-24 (mean): 52.56 ng·h/mL
  Cmax (mean): 4.615 ng/mL
[1]; 0.5 mg oral QD, Day 12
  AUCtau (mean): 197.54 ng·h/mL
  t1/2 (mean): 65.610 h
[1]; 0.5 mg oral QD, Day 12, 17280 min
  Cmax (mean): 11.660 ng/mL
[1]; [4]
  AUC0-24 (mean): 117.81 ng·h/mL
  Cmax (mean): 8.497 ng/mL
[1]; 1.0 mg oral QD, Day 12
  AUCtau (mean): 410.07 ng·h/mL
  t1/2 (mean): 60.876 h
[1]; 1.0 mg oral QD, Day 12, 17280 min
  Cmax (mean): 23.333 ng/mL
[1]; [5]
  AUC0-24 (mean): 216.99 ng·h/mL
  Cmax (mean): 18.833 ng/mL
[1]; 1.5 mg oral QD, Day 12
  AUCtau (mean): 705.65 ng·h/mL
  t1/2 (mean): 50.526 h
[1]; [6]
  AUC0-24 (mean): 243.73 ng·h/mL
  Cmax (mean): 19.633 ng/mL
[1]; 2.0 mg oral QD, Day 12
  AUCtau (mean): 873.17 ng·h/mL
  t1/2 (mean): 61.167 h
[1]; 2.0 mg oral QD, Day 12, 17280 min
  Cmax (mean): 49.817 ng/mL
[1]; 5.0 mg oral QD, Day 1, 1440 min
  AUC0-24 (mean): 641.92 ng·h/mL
[1]; 5.0 mg oral QD, Day 12
  t1/2 (mean): 38.695 h
[1]; 0.5-5.0 mg oral QD
  trend of t1/2 or λz with increasing dose: no trend towards change in t1/2 or λz with increasing dose
[1]; Cmax and AUC, 0.5-5.0 mg oral QD
  dose proportionality of exposure: generally increased dose- and concentration-proportionally; also recorded: Dose-proportional PK were confirmed over the investigated dose range
[1]; all cohorts, Day 1
  median time of the last quantifiable concentration: approximately 24 h
[1]; arguable exception 1.5 mg
  linearity of dose normalized Cmax and AUC0-24: consistent with linear kinetics
[1]; 0.5 mg, 0.5 mg oral QD, Day 1, read-out: AUC0-24 (mean)
  AUC(0-t) at 24 h: 53 ± 7 ng·h/mL
[1]; 0.5 mg, 0.5 mg oral QD, Day 1, read-out: AUC0-24 (median)
  AUC(0-t) at 24 h: 54.8 ng·h/mL
[1]; 0.5 mg, 0.5 mg oral QD, Day 1, read-out: Cmax (mean)
  Cmax at 24 h: 4.6 ± 2 ng/mL
[1]; 0.5 mg, 0.5 mg oral QD, Day 1, read-out: Cmax (median)
  Cmax at 24 h: 4.58 ng/mL
[1]; 0.5 mg, 0.5 mg oral QD, Day 12, read-out: AUCtau (mean)
  AUC tau: 198 ± 51 ng·h/mL
[1]; 0.5 mg, 0.5 mg oral QD, Day 12, read-out: AUCtau (median)
  AUC tau: 201 ng·h/mL
[1]; 0.5 mg, 0.5 mg oral QD, Day 12, read-out: Cmax (mean)
  Cmax at 288 h: 11.7 ± 4 ng/mL
[1]; 0.5 mg, 0.5 mg oral QD, Day 12, read-out: Cmax (median)
  Cmax at 288 h: 11.6 ng/mL
[1]; 0.5 mg, 0.5 mg oral QD, Day 12, read-out: t1/2 (mean) (converted)
  half-life: 66 ± 24 h
[1]; 0.5 mg, 0.5 mg oral QD, Day 12, read-out: t1/2 (median) (converted)
  half-life: 64.3 h
[1]; 1 mg, 1.0 mg oral QD, Day 1, read-out: AUC0-24 (mean)
  AUC(0-t) at 24 h: 118 ± 27 ng·h/mL
[1]; 1 mg, 1.0 mg oral QD, Day 1, read-out: AUC0-24 (median)
  AUC(0-t) at 24 h: 117 ng·h/mL
[1]; 1 mg, 1.0 mg oral QD, Day 1, read-out: Cmax (mean)
  Cmax at 24 h: 8.5 ± 3 ng/mL
[1]; 1 mg, 1.0 mg oral QD, Day 1, read-out: Cmax (median)
  Cmax at 24 h: 8.99 ng/mL
[1]; 1 mg, 1.0 mg oral QD, Day 12, read-out: AUCtau (mean)
  AUC tau: 410 ± 115 ng·h/mL
[1]; 1 mg, 1.0 mg oral QD, Day 12, read-out: AUCtau (median)
  AUC tau: 416 ng·h/mL
[1]; 1 mg, 1.0 mg oral QD, Day 12, read-out: Cmax (mean)
  Cmax at 288 h: 23.3 ± 5 ng/mL
